Columns and labels:
[1] = Highest frequency of moderate liver toxicity observed during clinical trials, expressed as a percentage. [column '% BIOL' in source]; conditions: human
[2] = Highest frequency of acute liver toxicity observed during clinical trials, expressed as a percentage. [column '% AIGUE' in source]; conditions: human
[3] = Presence of at least one case with successful reintroduction. [column 'REINT' in source]; conditions: human
[4] = Comments (NB not yet translated). [column 'COMMENTAIRES' in source]; conditions: human
[5] = Times to onset, minimal and maximal, observed in the indexed observations. [column 'DELAI' in source]; conditions: human
[6] = Proposed mechanism(s) of liver damage. [column 'MEC' in source]; conditions: human
[7] = human, serum
[8] = human, serum; remark: listed apart in the source
[9] = human
[10] = human; remark: listed apart in the source
[11] = human; remark: listed apart in the source
[12] = human, serum, 4383 h
[13] = human; remark: listed apart in the source
[14] = human; remark: listed apart in the source
[15] = human; remark: listed apart in the source
[16] = human; remark: listed apart in the source
[17] = human; remark: listed apart in the source
[18] = human; remark: listed apart in the source
[19] = human; remark: listed apart in the source
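Throughout, for Hepatotoxicity (association with vascular disease): count of indexed literature references reporting vascular liver injury in humans, e.g. peliosis hepatitis, hepatic veno-occlusive disease or Budd-Chiari syndrome.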
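Throughout, for Hepatotoxicity (benign tumour): value is a count of indexed literature references citing a benign tumour confirmed by histopathology.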
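Throughout, for Hepatotoxicity (choleostasis): human cholestatic liver injury, shown by histopathology or by peak ALT or AST elevation over alkaline phosphatase ratio below 2, value counts indexed literature reports.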
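Throughout, for Hepatotoxicity (chronic liver disease): chronic liver injury confirmed by histopathology or persistently raised serum aminotransferase activity beyond 6 months, value given as the count of indexed literature references.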
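Throughout, for Hepatotoxicity (cirrhosis): value is a count of indexed literature references reporting cirrhosis confirmed by histopathology.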
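Throughout, for Hepatotoxicity (cytolytic): human cytolytic liver injury, shown by histopathology or by a ratio above 5 of peak ALT or AST elevation to alkaline phosphatase elevation, value counts indexed references.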
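Throughout, for Hepatotoxicity (granulomatous hepatitis): value is a count of indexed literature references reporting granulomatous liver disease confirmed by histopathology.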
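Throughout, for Hepatotoxicity (malignant tumour): malignant tumour confirmed by histopathology, value gives the count of indexed literature references reporting it.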
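Throughout, for Hepatotoxicity (severe hepatitis): human clinical data: severe hepatitis, meaning potentially life-threatening liver failure or clinically observed cases, the value counts how many indexed literature references report it.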
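Throughout, for Hepatotoxicity (steatosis): steatosis confirmed by histopathology, value is the count of indexed references.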

In the case of `NC(=O)c1cnccn1` [PYRAZINAMIDE], the “Hepatotoxicity (moderate)” value [1] is reported as 36.4%, the “Hepatotoxicity (acute)” value [2] is reported as 31.8% and the “Hepatotoxicity (successful reintroduction)” value [3] is reported as “yes”. The “Hepatotoxicity (comment)” value [4] was “I/OFLOXACINE AC_ANTI-N”, the “Hepatotoxicity (time to onset)” value [5] was 2 hours - 1.2 years and the “Hepatotoxicity (mechanism)” value [6] was “Allergic, Dose-dependant”. The “Hepatotoxicity (moderate)” value [7] was 21, the “Hepatotoxicity (acute)” value [8] was 51 and the “Hepatotoxicity (cytolytic)” value [9] was 28. The “Hepatotoxicity (choleostasis)” value [10] was 8, the “Hepatotoxicity (severe hepatitis)” value [11] was 19 and the “Hepatotoxicity (chronic liver disease)” value [12] was 1. For the same compound, the “Hepatotoxicity (cirrhosis)” value [13] was 0, the “Hepatotoxicity (granulomatous hepatitis)” value [14] was 1 and the “Hepatotoxicity (association with vascular disease)” value [15] was 0. For the same compound, the “Hepatotoxicity (steatosis)” value [16] was 0, the “Hepatotoxicity (malignant tumour)” value [17] was 0 and the “Hepatotoxicity (benign tumour)” value [18] was 0. For the same compound, the “Hepatotoxicity (animal toxicity known)” value [19] was “yes”.

With CISPLATIN the “Hepatotoxicity (moderate)” value [1] was 93%, the “Hepatotoxicity (acute)” value [2] was 7% and the “Hepatotoxicity (successful reintroduction)” value [3] was “yes”. The “Hepatotoxicity (comment)” value [4] was “CHOLANGITE/IAH”, the “Hepatotoxicity (time to onset)” value [5] was 1 day - 2 weeks and the “Hepatotoxicity (mechanism)” value [6] was “Dose-dependant”. For the same compound, the “Hepatotoxicity (moderate)” value [7] was 23, the “Hepatotoxicity (acute)” value [8] was 3 and the “Hepatotoxicity (cytolytic)” value [9] was 2. The “Hepatotoxicity (choleostasis)” value [10] was 1, the “Hepatotoxicity (severe hepatitis)” value [11] was 1 and the “Hepatotoxicity (chronic liver disease)” value [12] was 0. For the same compound, the “Hepatotoxicity (cirrhosis)” value [13] was 0, the “Hepatotoxicity (granulomatous hepatitis)” value [14] was 0 and the “Hepatotoxicity (association with vascular disease)” value [15] was 2. For the same compound, the “Hepatotoxicity (steatosis)” value [16] was 1, the “Hepatotoxicity (malignant tumour)” value [17] was 0 and the “Hepatotoxicity (benign tumour)” value [18] was 0. The “Hepatotoxicity (animal toxicity known)” value [19] was “yes”.

In the case of `CC[C@]1(O)C[C@H]2CN(CCc3c([nH]c4ccccc34)[C@@](C(=O)OC)(c3cc4c(cc3OC)N(C=O)[C@H]3[C@@](O)(C(=O)OC)[C@H](OC(C)=O)[C@]5(CC)C=CCN6CC[C@]43[C@@H]65)C2)C1` [VINCRISTINE], the “Hepatotoxicity (moderate)” value [1] is reported as 7.3%, the “Hepatotoxicity (acute)” value [2] is reported as 0% and the “Hepatotoxicity (successful reintroduction)” value [3] is reported as “yes”. The “Hepatotoxicity (comment)” value [4] was “I/RADIOTHERAPIE REACTIVATION_HVB”, the “Hepatotoxicity (time to onset)” value [5] was 3 days - 20 days and the “Hepatotoxicity (mechanism)” value [6] was “Dose-dependant”. The “Hepatotoxicity (moderate)” value [7] was 3, the “Hepatotoxicity (acute)” value [8] was 5 and the “Hepatotoxicity (cytolytic)” value [9] was 4. For the same compound, the “Hepatotoxicity (choleostasis)” value [10] was 0, the “Hepatotoxicity (severe hepatitis)” value [11] was 4 and the “Hepatotoxicity (chronic liver disease)” value [12] was 0. The “Hepatotoxicity (cirrhosis)” value [13] was 0, the “Hepatotoxicity (granulomatous hepatitis)” value [14] was 0 and the “Hepatotoxicity (association with vascular disease)” value [15] was 7. For the same compound, the “Hepatotoxicity (steatosis)” value [16] was 0, the “Hepatotoxicity (malignant tumour)” value [17] was 1 and the “Hepatotoxicity (benign tumour)” value [18] was 0. The “Hepatotoxicity (animal toxicity known)” value [19] was “yes”.

With `Cc1onc(-c2c(F)cccc2Cl)c1C(=O)N[C@@H]1C(=O)N2[C@@H]1SC(C)(C)[C@@H]2C(=O)O` [FLOXACILLIN] the “Hepatotoxicity (moderate)” value [1] was 3.4%, the “Hepatotoxicity (acute)” value [2] was 0% and the “Hepatotoxicity (successful reintroduction)” value [3] was “yes”. The “Hepatotoxicity (comment)” value [4] was “CHOLESTASE_PROLONGEE CHOLANGITE #CBP”, the “Hepatotoxicity (time to onset)” value [5] was 12 hours - 2 months and the “Hepatotoxicity (mechanism)” value [6] was “Allergic”. For the same compound, the “Hepatotoxicity (moderate)” value [7] was 4, the “Hepatotoxicity (acute)” value [8] was 26 and the “Hepatotoxicity (cytolytic)” value [9] was 2. For the same compound, the “Hepatotoxicity (choleostasis)” value [10] was 20, the “Hepatotoxicity (severe hepatitis)” value [11] was 2 and the “Hepatotoxicity (chronic liver disease)” value [12] was 1. The “Hepatotoxicity (cirrhosis)” value [13] was 2, the “Hepatotoxicity (granulomatous hepatitis)” value [14] was 1 and the “Hepatotoxicity (association with vascular disease)” value [15] was 0. The “Hepatotoxicity (steatosis)” value [16] was 2, the “Hepatotoxicity (malignant tumour)” value [17] was 0 and the “Hepatotoxicity (benign tumour)” value [18] was 0. For the same compound, the “Hepatotoxicity (animal toxicity known)” value [19] was “yes”.

For `Cc1ccc(S(=O)(=O)NC(=O)NC2CCCCC2)cc1N` [METAHEXAMIDE], the “Hepatotoxicity (moderate)” value [1] was 24%, the “Hepatotoxicity (acute)” value [2] was 4.4% and the “Hepatotoxicity (successful reintroduction)” value [3] was “yes”. For the same compound, the “Hepatotoxicity (comment)” value [4] was “PERICHOLANGITE RC/CARBUTAMIDE”, the “Hepatotoxicity (time to onset)” value [5] was 4 days - 1 week and the “Hepatotoxicity (mechanism)” value [6] was “Dose-dependant”. The “Hepatotoxicity (moderate)” value [7] was 6, the “Hepatotoxicity (acute)” value [8] was 11 and the “Hepatotoxicity (cytolytic)” value [9] was 7. The “Hepatotoxicity (choleostasis)” value [10] was 4, the “Hepatotoxicity (severe hepatitis)” value [11] was 2 and the “Hepatotoxicity (chronic liver disease)” value [12] was 0. For the same compound, the “Hepatotoxicity (cirrhosis)” value [13] was 1, the “Hepatotoxicity (granulomatous hepatitis)” value [14] was 0 and the “Hepatotoxicity (association with vascular disease)” value [15] was 0. The “Hepatotoxicity (steatosis)” value [16] was 0, the “Hepatotoxicity (malignant tumour)” value [17] was 0 and the “Hepatotoxicity (benign tumour)” value [18] was 0. The “Hepatotoxicity (animal toxicity known)” value [19] was “yes”.

For `FC(F)(F)C(Cl)Br` (configuration not stated) [HALOTHANE], the “Hepatotoxicity (moderate)” value [1] was 33%, the “Hepatotoxicity (acute)” value [2] was 0% and the “Hepatotoxicity (successful reintroduction)” value [3] was “yes”. For the same compound, the “Hepatotoxicity (comment)” value [4] was “AC_ANTI-MFR1/-TFA RC/METHOXYFLURANE/ENFLURANE”, the “Hepatotoxicity (time to onset)” value [5] was 1 day - 3 months and the “Hepatotoxicity (mechanism)” value [6] was “Allergic, Toxic Metabolite”. For the same compound, the “Hepatotoxicity (moderate)” value [7] was 24, the “Hepatotoxicity (acute)” value [8] was 99 and the “Hepatotoxicity (cytolytic)” value [9] was 31. The “Hepatotoxicity (choleostasis)” value [10] was 7, the “Hepatotoxicity (severe hepatitis)” value [11] was 35 and the “Hepatotoxicity (chronic liver disease)” value [12] was 3. The “Hepatotoxicity (cirrhosis)” value [13] was 2, the “Hepatotoxicity (granulomatous hepatitis)” value [14] was 2 and the “Hepatotoxicity (association with vascular disease)” value [15] was 0. For the same compound, the “Hepatotoxicity (steatosis)” value [16] was 1, the “Hepatotoxicity (malignant tumour)” value [17] was 0 and the “Hepatotoxicity (benign tumour)” value [18] was 0. The “Hepatotoxicity (animal toxicity known)” value [19] was “yes”.

For `O=c1[nH]c(=O)n([C@H]2C[C@H](O)[C@@H](CO)O2)cc1F` [FLOXURIDINE], the “Hepatotoxicity (moderate)” value [1] was 100%, the “Hepatotoxicity (acute)” value [2] was 60% and the “Hepatotoxicity (successful reintroduction)” value [3] was “yes”. The “Hepatotoxicity (comment)” value [4] was “CHOLECYSTITE_ACALCULEUSE CHOLANGITE/IAH #CBP”, the “Hepatotoxicity (time to onset)” value [5] was 3 cures - 12 cures and the “Hepatotoxicity (mechanism)” value [6] was “Dose-dependant”. The “Hepatotoxicity (moderate)” value [7] was 25, the “Hepatotoxicity (acute)” value [8] was 9 and the “Hepatotoxicity (cytolytic)” value [9] was 2. For the same compound, the “Hepatotoxicity (choleostasis)” value [10] was 7, the “Hepatotoxicity (severe hepatitis)” value [11] was 3 and the “Hepatotoxicity (chronic liver disease)” value [12] was 0. For the same compound, the “Hepatotoxicity (cirrhosis)” value [13] was 4, the “Hepatotoxicity (granulomatous hepatitis)” value [14] was 0 and the “Hepatotoxicity (association with vascular disease)” value [15] was 3. The “Hepatotoxicity (steatosis)” value [16] was 2, the “Hepatotoxicity (malignant tumour)” value [17] was 0 and the “Hepatotoxicity (benign tumour)” value [18] was 0. The “Hepatotoxicity (animal toxicity known)” value [19] was “yes”.

With `CN(C)CCCN1c2ccccc2Sc2ccc(Cl)cc21` [CHLORPROMAZINE] the “Hepatotoxicity (moderate)” value ([1]; Liver) was 42%, the “Hepatotoxicity (acute)” value ([2]; Liver) was 5.3% and the “Hepatotoxicity (successful reintroduction)” value [3] was “yes”. The “Hepatotoxicity (comment)” value [4] was “RC/PROMAZINE/THIORIDAZINE AC_ANTI-N #CBP DUCTOPENIE”, the “Hepatotoxicity (time to onset)” value [5] was 1 day - 28 years and the “Hepatotoxicity (mechanism)” value [6] was “Allergic, Toxic Metabolite”. For the same compound, the “Hepatotoxicity (moderate)” value [7] was 9, the “Hepatotoxicity (acute)” value [8] was 58 and the “Hepatotoxicity (cytolytic)” value [9] was 13. For the same compound, the “Hepatotoxicity (choleostasis)” value [10] was 50, the “Hepatotoxicity (severe hepatitis)” value ([11]; Liver) was 4 and the “Hepatotoxicity (chronic liver disease)” value [12] was 6. The “Hepatotoxicity (cirrhosis)” value [13] was 8, the “Hepatotoxicity (granulomatous hepatitis)” value [14] was 2 and the “Hepatotoxicity (association with vascular disease)” value [15] was 0. The “Hepatotoxicity (steatosis)” value [16] was 1, the “Hepatotoxicity (malignant tumour)” value [17] was 0 and the “Hepatotoxicity (benign tumour)” value [18] was 0. The “Hepatotoxicity (animal toxicity known)” value [19] was “yes”.
